According to patent publication US5084463A, “N-quinolinyl alkyl-substituted 1-aryloxy-2-propanolamine and propylamine derivatives possessing class III antiarrhythmic activity” (American Home Products Corporation, priority 1990, dated 1992):

Experiments:
[1] = dextro enantiomer; Taggart et al. 1985, McComb et al. 1985; cited from earlier work
[2] = system: Purkinje Fiber; experiment: Cardiac electrophysiology in vitro: action potential parameters of dog Purkinje fibers; type: cell-based; conditions: 3 μM, BCL = 300
Experimental: Bundles of free-running Purkinje fibers with attached myocardium obtained from either ventricle of adult dog heart were pinned without stretching to the bottom of a 10 mL tissue chamber and continuously superfused with oxygenated Tyrode's solution at a flow rate of 5 mL/minute. The composition of the Tyrode's solution was (mM): NaCl, 138; KCl 4; CaCl2, 2; MgCl2, 0.5; NaHCO3, 24; dextrose, 5.5. The solution was aerated with 95% O2 --5% CO2 at 37° C. Bath temperature was maintained at 37°±0.5° C. by circulating the pre-warmed superfusate through a thermostatically controlled water bath immediately prior to entering the tissue chamber. […] The first derivative of the action potential upstroke (Vmax) was obtained using an analog differentiator circuit, coupled to a peak-hold circuit that retained the recorded value of Vmax for 30 to 70-msec. […] Action potential (AP) parameters measured included: diastolic take-off potential (or activation voltage, V(act); AP overshoot (Vos); AP duration measured as the time taken to repolarize to -20 mV (APD-20), -60 mV (APD-60), and -80 mV (APD-80); and maximal upstroke velocity (Vmax). An increase in APD-60 that occurred without a significant change in Vmax was taken, by definition, to indicate Class III antiarrhythmic activity "in vitro".

[3] = system: Dog; experiment: Ventricular fibrillation threshold in dog; type: in vivo, mongrel dog; conditions: 5 mg/kg i.v.
Experimental: VENTRICULAR FIBRILLATION THRESHOLD
Mongrel dogs of both sexes weighing 12 to 18 kg were anesthetized with sodium pentobarbital (35 mg/kg i.v. supplemented with 5 mg/kg/h) and artificially ventilated with room air (minute volume: 200 mL/kg).
A right thoracotomy was performed at the fifth intercostal space and the heart suspended in a pericardial cradle. Bipolar electrodes for stimulation were sutured to the free wall of the right atrium and to the right ventricle.
The dog heart was paced by a stimulus for driving a constant current isolation unit.
Ventricular fibrillation threshold (VFT) was determined during atrial pacing at […]. Trains of 4-msec duration square-wave pulses (50 Hz, 200-msec duration) were delivered to the right ventricle via the epicardial bipolar electrode (silver contacts 1 mm in diameter and 5 mm apart embedded in acrylic matrix). Trains of pulses were delivered every 12th paced beat and were timed to terminate with the end of the T wave of the ECG. Current intensity was increased progressively until ventricular fibrillation (VF) occurred. The lowest current intensity producing VF was defined as the ventricular fibrillation threshold (VFT). […] VFT was measured twice before drug administration to establish a stable pre-drug threshold. […]

For `CC(C)NCC(O)c1ccc(NS(C)(=O)=O)cc1` (stereo not shown) [Sotalol, 4-(2-isopropylamino-1-hydroxyethyl)-methanesulfonamide], the “selective Class III antiarrhythmic activity” value [1] is given as “selective Class III antiarrhythmic activity”.

With `CN(Cc1ccc2ccccc2n1)CC(O)COc1ccc([N+](=O)[O-])cc1.Cl.Cl` (stereo not shown) [Example 3, 1-[Methyl(2-quinolinylmethyl)amino]-3-(4-nitrophenoxy)-2-propanol Dihydrochloride] the APD-60 [2] was “did not pace”.

With `CN(Cc1ccc2ccccc2n1)CC(O)COc1ccc(NS(C)(=O)=O)cc1` (stereo not shown) [Example 4, N-[4-[2-Hydroxy-3-[methyl(2-quinolinylmethyl)amino]propoxy]phenyl]methanesulfonamide] the “Ventricular fibrillation threshold (current threshold necessary to induce fibrillation)” value ([3]; n = 6, x + S.E., pre-drug vehicle 8 + 2) was 25 + 7 mA and the animals defibrillated spontaneously ([3]; of 6 animals) was 2 animals.
